Source: patent publication US9145373B2, “Certain kynurenine-3-monooxygenase inhibitors, pharmaceutical compositions, and methods of use thereof” (CHDI FOUNDATION, INC., priority 2008, dated 2015)

Target: T1, KMO mouse enzyme (Mus musculus, UniProt Q91WN4)
T1 construct: KMO enzyme prepared at Evotec from mouse liver (4-6 weeks old) via mitochondria isolation; from tissue; host or cells: mouse liver (4-6 weeks old), mitochondria isolation, prepared at Evotec
Experiment: KMO mouse enzyme assay: L-Kynurenine hydroxylation to 3-Hydroxy-Kynurenine monitored by LC/MS (MRM)
Assay type: biochemical
Conditions: compound at 10 μM, KMO enzyme from mouse liver mitochondria; for inhibition at 10 µM: read-out: INH.Mouse @ 10 μM
Outline: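 Enzyme is a mitochondrial preparation from 4-6-week-old mouse liver, with L-kynurenine as substrate in potassium phosphate buffer, pH 7.4. 3-Hydroxy-kynurenine formed is quantified by LC/MS using multiple reaction monitoring. Compound stocks were 10 mM in DMSO.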

T1 sequence (Q91WN4 whole entry): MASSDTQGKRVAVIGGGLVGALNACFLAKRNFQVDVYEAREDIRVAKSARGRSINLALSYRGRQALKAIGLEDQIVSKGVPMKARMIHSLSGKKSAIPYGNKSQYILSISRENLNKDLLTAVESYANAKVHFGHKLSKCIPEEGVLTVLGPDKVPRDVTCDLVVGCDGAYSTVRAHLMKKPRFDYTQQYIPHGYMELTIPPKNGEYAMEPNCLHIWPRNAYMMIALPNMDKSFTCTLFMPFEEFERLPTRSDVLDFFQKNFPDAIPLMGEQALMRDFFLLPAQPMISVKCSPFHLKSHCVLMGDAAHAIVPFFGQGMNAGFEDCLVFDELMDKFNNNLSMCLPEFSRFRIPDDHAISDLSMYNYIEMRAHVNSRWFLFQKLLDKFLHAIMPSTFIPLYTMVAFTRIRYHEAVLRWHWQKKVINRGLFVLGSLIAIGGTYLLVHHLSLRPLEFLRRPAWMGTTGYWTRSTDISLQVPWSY

SMILES: O=C(c1cc(-c2ccc(Cl)c(Cl)c2)ncn1)N1Cc2ccccc2C1 [[6-(3,4-Dichloro-phenyl)-pyrimidin-4-yl]-(1,3-dihydro-isoindol-2-yl)-methanone]
- inhibition at 10 µM: 63.5%

SMILES: O=C(c1cc(-c2ccc(Cl)c(Cl)c2)ncn1)N1CC2(CC2)c2ccccc21 [[6-(3,4-Dichloro-phenyl)-pyrimidin-4-yl]-(1′,2′-dihydro-spiro[cyclopropane-1,3′-[3H]indol]-1′)-methanone]
- INH.Mouse @ 10 μM: 100.0

SMILES: O=C(c1cc(-c2ccc(Cl)c(Cl)c2)ncn1)N1CCc2ccccc21 [[6-(3,4-Dichloro-phenyl)-pyrimidin-4-yl]-(2,3-dihydro-indol-1-yl)-methanone]
- inhibition at 10 µM: 100%

SMILES: O=C(c1cc(-c2ccc(Cl)c(Cl)c2)ncn1)N1CCCc2ccccc21 [[6-(3,4-Dichloro-phenyl)-pyrimidin-4-yl]-(3,4-dihydro-2H-quinolin-1-yl)-methanone]
- inhibition at 10 µM: 92.6%

SMILES: O=C(c1cc(-c2ccc(Cl)c(Cl)c2)ncn1)N1CCc2cc(F)ccc21 [[6-(3,4-Dichloro-phenyl)-pyrimidin-4-yl]-(5-fluoro-2,3-dihydro-indol-1-yl)-methanone]
- inhibition at 10 µM: 100%

SMILES: O=C(c1cc(-c2cc(Cl)cc(Cl)c2)ncn1)N1CCc2ccccc21 [[6-(3,5-Dichloro-phenyl)-pyrimidin-4-yl]-(2,3-dihydro-indol-1-yl)-methanone]
- inhibition at 10 µM: 98.3%

SMILES: O=C(c1cc(-c2cccc(Cl)c2)ncn1)N1Cc2ccccc2C1 [[6-(3-Chloro-phenyl)-pyrimidin-4-yl]-(1,3-dihydro-isoindol-2-yl)-methanone]
- inhibition at 10 µM: 100%

SMILES: O=C(c1cc(-c2cccc(Cl)c2)ncn1)N1CCc2ccccc21 [[6-(3-Chloro-phenyl)-pyrimidin-4-yl]-(2,3-dihydro-indol-1-yl)-methanone]
- inhibition at 10 µM: 100%

SMILES: O=C(c1cc(-c2cccc(Cl)c2)ncn1)N1CCc2cnccc21 [[6-(3-Chloro-phenyl)-pyrimidin-4-yl]-(2,3-dihydro-pyrrolo[3,2-c]pyridin-1-yl)-methanone]
- inhibition at 10 µM: 100%

SMILES: CC1Cc2ccccc2N1C(=O)c1cc(-c2cccc(Cl)c2)ncn1 (stereo not shown) [[6-(3-Chloro-phenyl)-pyrimidin-4-yl]-(2-methyl-2,3-dihydro-indol-1-yl)-methanone]
- inhibition at 10 µM: 76.9%

SMILES: O=C(c1cc(-c2cccc(Cl)c2)ncn1)N1CCCc2ccccc21 [[6-(3-Chloro-phenyl)-pyrimidin-4-yl]-(3,4-dihydro-2H-quinolin-1-yl)-methanone]
- inhibition at 10 µM: 100%

SMILES: O=C(c1cc(-c2cccc(Cl)c2)ncn1)N1CCC(O)CC1 [[6-(3-Chloro-phenyl)-pyrimidin-4-yl]-(4-hydroxy-piperidin-1-yl)-methanone]
- inhibition at 10 µM: 100%

SMILES: CN1CCN(C(=O)c2cc(-c3cccc(Cl)c3)ncn2)CC1 [[6-(3-Chloro-phenyl)-pyrimidin-4-yl]-(4-methyl-piperazin-1-yl)-methanone]
- inhibition at 10 µM: 64.3%

SMILES: CC1CCN(C(=O)c2cc(-c3cccc(Cl)c3)ncn2)CC1 [[6-(3-Chloro-phenyl)-pyrimidin-4-yl]-(4-methyl-piperidin-1-yl)-methanone]
- inhibition at 10 µM: 88.2%

SMILES: O=C(c1cc(-c2cccc(Cl)c2)ncn1)N1CCc2cc(F)ccc21 [[6-(3-Chloro-phenyl)-pyrimidin-4-yl]-(5-fluoro-2,3-dihydro-indol-1-yl)-methanone]
- inhibition at 10 µM: 100%

SMILES: O=C(c1cc(-c2cccc(Cl)c2)ncn1)N1CC[C@@H](O)C1 [[6-(3-Chloro-phenyl)-pyrimidin-4-yl]-((R)-3-hydroxy-pyrrolidin-1-yl)-methanone]
- inhibition at 10 µM: 83.9%

SMILES: O=C(c1cc(-c2cccc(Cl)c2)ncn1)N1CC[C@H](O)C1 [[6-(3-Chloro-phenyl)-pyrimidin-4-yl]-((S)-3-hydroxy-pyrrolidin-1-yl)-methanone]
- inhibition at 10 µM: 84.9%

SMILES: O=C(c1cc(-c2cccc(Cl)c2)ncn1)N1CCOCC1 [[6-(3-Chloro-phenyl)-pyrimidin-4-yl]-morpholin-4-yl-methanone]
- inhibition at 10 µM: 100%

SMILES: O=C(c1cc(-c2cccc(Cl)c2)ncn1)N1CCCC1 [[6-(3-Chloro-phenyl)-pyrimidin-4-yl]-pyrrolidin-1-yl-methanone]
- inhibition at 10 µM: 90.5%
